Assay results: patent publication US9856232B1, “Dihydropyrimidinone derivatives” (KING SAUD UNIVERSITY, priority 2017, dated 2018)
Marks after values point to notes of the source that are not given here.

Legend:
Format in all cases: in vivo, Albino Wistar rats
[1] = tested on: Gastric lesions induced by necrotizing agents (80% ethanol, 0.2 mol/L NaOH or 25% NaCl); experiment: Gastric lesions induced by necrotizing agents (cytoprotection); details: 50 mg/kg, i.p; 30 min before necrotizing agent; mean ± SE
[2] = tested on: Indomethacin-induced gastric mucosal lesions; experiment: Gastric lesions induced by Indomethacin; design: scale not given here; details: 50 mg/kg, i.p; 30 min before Indomethacin 30 mg/kg; mean ± SE
Source text: Albino Wistar rats of either sex, approximately the same age, weighing 150 to 200 g and fed on a diet of standard chow were used in this study. They were randomly divided into experimental groups of six rats each. […] The rats were sacrificed, and the stomachs removed and opened along the greater curvature, After washing with saline, the gastric lesions were quantified by a person unaware of the treatments. The animal study protocol was approved by the Research and Ethics Committee of the Experimental Animal Care Society, College of Pharmacy, King Saud University, Riyadh, Saudi Arabia.
Gastric lesions induced by Indomethacin: Indomethacin was suspended in 1.0% carboxymethylcellulose (CMC) in water (6 mg/mL) and administered orally to the 36 hour fasted rats at a dose of 30 mg/kg body weight. Control rats were treated similarly with an equivalent amount of vehicle. […] The animals were sacrificed 6 hours after treatment. The stomachs were excised, rinsed with normal saline and examined for ulceration. Table 3 provides the effect of compounds on Indomethacin-induced gastric mucosal lesions (mean±SE).

[3] = tested on: total protein in stomach tissue, induced by 80% ethanol; experiment: Total protein in stomach tissue; details: dose 50, 80% ethanol-treated rats, mean ± SE
[4] = tested on: malondialdehyde in stomach tissue, induced by 80% ethanol; experiment: Determination of malondialdehyde (MDA); details: dose 50, 80% ethanol-treated rats, mean ± SE
Procedure: (§1) Albino Wistar rats of either sex, approximately the same age, weighing 150 to 200 g and fed on a diet of standard chow were used in this study. They were randomly divided into experimental groups of six rats each. Compounds (N-1 to N-18) 12.5, 25, and 50 mg/kg were given orally in the anti-ulcer studies and intraperitoneally for gastric secretion evaluation. The rats were sacrificed, and the stomachs removed and opened along the greater curvature, After washing with saline, the gastric lesions were quantified by a person unaware of the treatments. The animal study protocol was approved by the Research and Ethics Committee of the Experimental Animal Care Society, College of Pharmacy, King Saud University, Riyadh, Saudi Arabia.
Determination of malondialdehyde (MDA): The animals were sacrificed 1 hour after ethanol administration. The stomachs were removed and each was homogenized in 0.15 mol/L KCl (at 4° C.) in a Potter-Elvehjem type C homogenizer to give a 10% w/v homogenate. Aliquots of homogenate 1 mL in volume were incubated at 37° C. for 3 hours in a metabolic shaker. Then 1 mL of 10% aqueous TCA was added and mixed. The mixture was then centrifuged at 800 g for 10 minutes. One milliliter of the supernatant was removed and mixed with 1 mL of 0.67% w/v thiobarbituric acid in water and placed in a boiling water bath for 10 minutes. The mixture was cooled and diluted with 1 mL distilled water. The absorbance of the solution was then read at 535 nm. The content of malondialdehyde (nmol/g wet tissue) (index of the magnitude of lipid peroxidation) was then calculated, by reference to a standard curve of malondialdehyde solution. Table 7 provides the effect of compounds on the levels of MDA, NP_SH, and total protein in stomach tissue induced by 80% ethanol (mean±SE).

[5] = tested on: gastric secretion in pylorus-ligated Shay rats; experiment: Pylorus-ligated rats: gastric secretion, acidity and lesion index; design: Ulcer Index, pylorus-ligated Shay rats: scale not given here; details: 50 mg/kg, i.p.; 6 h after pylorus ligation; mean ± SE
Procedure: as §1
Pylorus-ligated rats: Rats were fasted for 36 hours with access to water ad libitum before pylorus ligation under ether anesthesia was carried out. Care was taken not to cause bleeding or to occlude blood vessels. Compounds (N-3, N-8, N-11, and N-15) were administered intraperitoneally immediately after pylorus ligation. The rats were sacrificed at 6 hours after pylorus ligation. The stomachs were removed, the contents were collected, volumes measured, centrifuged and analyzed for tritratable acidity against […], NaOH at pH 7.0. Table 5 provides the effect of compounds on gastric secretion, acidity, and gastric lesion index in pylorus-ligated Shay rats (mean±SE).

[6] = tested on: gastric mucosal non-protein sulfhydryls, induced by 80% ethanol; experiment: Estimation of non-protein sulfhydryls (NP-SH); details: dose 50; stomach tissue, 80% ethanol-treated rats; mean ± SE
Procedure: as §1
Estimation of non-protein sulfhydryls (NP_SH): Gastric mucosal non-protein sulfhydryls were measured according to the method. The glandular part of the stomach was homogenized in ice-cold 0.02 mmol/L ethylenediaminetetraacetic acid (EDTA). Aliquots of 5 mL of the homogenates were mixed in 15 mL test tubes with 4 mL of distilled water and 1 mL of 50% trichloroacetic acid (TCA). The tubes were shaken intermittently for 10 minutes and centrifuged at 3000 r/min. Two milliliters of supernatant were mixed with 4 mL of 0.4 mol/L Tris buffer at pH 8.9. Then 0.1 ML of 5, 5′-dithio-bis (2-nitrobenzoic acid) (DTNB) was added and the sample was shaken. The absorbance was measured within 5 minutes of DTNB addition at 412 nm against a reagent blank.

[7] = tested on: Hypothermic restraint stress-induced intraluminal bleeding and gastric lesion; experiment: Hypothermic restraint stress-induced ulcers; design: Gastric Lesion Ulcer Index: scale not given here; details: 50 mg/kg; hypothermic restraint 3 h; mean ± SE
[8] = tested on: gastric wall mucus in stomach tissue, change induced by 80% ethanol; experiment: Determination of gastric wall mucus (GWM); details: 50 mg/kg, i.p; 80% ethanol-treated rats; mean ± SE
Procedure: as §1
Determination of gastric wall mucus (GWM): Gastric wall mucus was determined according to the modified procedure. The glandular segment of the stomach was separated from the rumen of the stomach, weighed, and transferred immediately to 10 mL of 0.1% w/v Alcian blue solution (in […] sucrose solution buffered with […] sodium acetate at pH 5. Tissue was stained for 2 hours in Alcian blue, and excess dye was removed by two successive rinses with 10 mL of […] sucrose, firstly after 15 minutes and then after 45 minutes. Dye complexed with the gastric wall mucus was extracted with 10 ml of […] magnesium chloride which was intermittently shaken for 1 minute at 30 minute intervals for 2 hours. Four milliliters of blue extract were then vigorously shaken with an equal volume of diethyl ether. The resulting emulsion was centrifuged at 4000 r/min for 10 minutes and the absorbance of the aqueous layer was recorded at 580 nm. The quantity of Alcian blue extracted per gram of wet glandular tissue was then calculated. Table 6 provides the effect of compounds on the change in gastric wall mucus in stomach tissue induced by 80% ethanol (mean±SE).

[9] = tested on: Gastric lesions induced by 80% ethanol; experiment: Gastric lesions induced by ethanol (ulcer index by severity scores); details: Rattus norvegicus, po, Ranitidine 50 mg/kg, vs 80% EtOH group of the row; read-out: Gastric lesions induced by 80% ethanol, % change
Procedure: as §1
Gastric lesions induced by ethanol: Albino rats of either sex weighing between (150-200 g) are divided into groups. The animals were fasted for 24 hours with free access to water. Animals were given test drugs or standard drug. One hour later 1 mL/200 gm of 80% ethanol is administered orally to each animal. The animals were anaesthetized 1 hour latter with anesthetic ether and stomach was incised along the greater curvature and ulceration was scored. The number of ulcers and the length of each ulcer were measured. Ulcer index was calculated using severity scores. The mucosal damage was examined by means of a magnifying glass. For each stomach the mucosal damage was assessed according to the following scoring system: 0.5 redness; 1.0 spot ulcers; 1.5 hemorrhagic streaks; 2.0 ulcers<3, but≦5; 3.0 ulcers>5. Table 1 provides the effect of compounds on gastric lesions induced by 80% ethanol (mean±SE).

SMILES: CNC(=C[N+](=O)[O-])NCCSCc1ccc(CN(C)C)o1 [Ranitidine, reference compound]
- Ulcer Index, 0.2 mol/L NaOH [1]: 1.00 ± 0.36
- Ulcer Index, 25% NaCl [1]: 1.16 ± 0.30
- Ulcer Index, 80% EtOH [1]: 1.50 ± 0.22
- Ulcer Index, indomethacin-induced gastric mucosal lesions [2]: 8.50 ± 0.56
- Total Protein [3]: 104.59 ± 1.59***^b g/L
- MDA [4]: 1.65 ± 0.02***^b nmol/g
- Titratable Acidity [5]: 58.88 ± 1.85 mEg/L
- Ulcer Index, pylorus-ligated Shay rats [5]: 0.50 ± 0.22
- Volume of Gastric Content [5]: 4.06 ± 0.18 mL
- NP-SH [6]: 4.24 ± 0.15**^b nmol/g
- Gastric Lesion Ulcer Index [7]: 9.66 ± 0.95
- Intraluminal Bleeding Score [7]: 0.83 ± 0.30
- Gastric Wall Mucus [8]: 287.24 ± 10.70***^b μg/g
- inhibition in vivo at 50 mg/kg [9]: 73.3%
